Data reported in patent publication US20100204460A1, “NATURAL BRASSINOSTEROIDS FOR USE FOR TREATING HYPERPROLIFERATION, TREATING PROLIFERATIVE DISEASES AND REDUCING ADVERSE EFFECTS OF STEROID DYSFUNCTION IN MAMMALS, PHARMACEUTICAL COMPOSITION AND ITS USE” (priority 2007, published 2010).
Where two headings read alike, the source gives them in different places.

What was measured:
[1] = test system: cultured mouse hybridoma cells; conditions: cited from earlier work; for density of viable cells / growth: mouse hybridoma cells, concentrations of 10^−13 mol/L and 10^−12 mol/L
[2] = test system: normal and cancer cell lines of different histopathological origin; assay: Calcein AM cytotoxicity assay, summary statements over the cell line panel; format: cell-based; conditions: versus 28-homobrassinolide 2
Protocol: Stock solutions ([…]) were prepared by dissolving relevant quantity of substance in DMSO cultivation media (DMEM, RPMI 1640, F-12 medium), fetal bovine serum (FBS), L-glutamine, penicillin, and streptomycin were purchased from Sigma (MO, USA). 3-(4,5-Dimethylthiazol-2-yl)-2,5-diphenyltetrazolium bromide (MTT) was from Serva Electrophoresis (Heidelberg, Germany). Monoclonal mouse anti-bromodeoxyuridine (BrdU) intibody was obtained from DakoCytomation (Glostrup, Denmark). Calcein AM was obtained from PAA Laboratories GmbH (Pasching, Austria). The screening cell lines (T-lymphoblastic leukaemia cell line CEM; breast carcinoma cell line MCF-7 (estrogen-sensitive), breast adenocarcinoma cell line MDA-MB 468 (cell lines LNCaP (androgen-sensitive), prostate carcinoma cell line DU-145 ([…]), lung carcinoma cell line A-549, chronic myelogenous leukemia cell line K562, multiple myeloma cell line RPMI 8226, cervical carcinoma cell line HeLa, malignant human melanoma cell line G361, osteosarcoma cell line HOS, and normal human fibroblasts (BJ) were obtained from the American Type Culture Collection (Manassas, Va., USA). MCF-7 cells were cultured in F-12 medium (Sigma, MO, USA). LNCaP cells were cultured in RPMI 1640 medium (GIBCO, USA). All other cells were cultured in DMEM medium (Sigma, MO, USA). All used media were supplemented with 10% heat-inactivated fetal bovine serum, 2 mmol/L L-glutamine, 1% penicillin/streptomycin. The cell lines were maintained under standard cell culture conditions at 37° C. and 5% CO2 in a humid environment. Cells were subcultured twice or three times a week using the standard trypsinization procedure (Sigma, USA).
The cell suspension of approximate density of 1.25×10^5 cells/mL was redistributed into 96-well microtitre plates and after 12 h of stabilization the tested Brassinosteroids (BRs) were added in different concentrations. BRs were dissolved in DMSO. Control cultures were treated with DMSO alone. The final concentration of DMSO in the reaction mixture never exceeded 1%. Tested compounds in given concentrations were added at time zero in 20 μL aliquots to the microtiter plate wells. Usually, each test compound was evaluated at six 4-fold dilutions. In routine testing, the highest well concentration was 50 μmol, but it can be the matter of change dependent on the agent. Cultivation proceeds 96 h at 37° C., the cells were incubated with Calcein AM solution (Molecular Probes) for 1 h. Fluorescence (OD) of viable cells was quantified with Fluoroscan Ascent (Microsystems). The cell survival (IC50) was calculated using the following equation: IC50=(ODdrug exposed well/mean ODcontrol wells)×100%. Each compound was tested in triplicates and the test was repeated at least 3 times. The IC50 value, corresponding to drug concentration lethal to 50% of the tumor cells, was calculated from the obtained dose response curves.
We investigated effects of brassinosteroid on viability of normal and cancer cell lines of different histopathological origin. To evaluate the cytotoxic properties of several BRs and some related steroids, we used T-lymphoblastic leukaemia cell line CEM, breast carcinoma cell line MCF-7, lung carcinoma cell line A-549, chronic myeloid leukaemia cell line K562, multiple myeloma cell line RPMI 8226, cervical carcinoma cell line HeLa, malignant melanoma cell line G361, osteosarcoma cell line HOS, and normal human fibroblasts BJ. The cells were exposed to six 4-fold dilutions of each drug for 72 h to determinate number of surviving cells.

arena viruses = conditions: cited from earlier work
measles virus (MV) = conditions: cited from earlier work

SMILES	S-phase cells ([1]; cultured mouse hybridoma cells)	fraction of the cells in G0/G1 phase ([1]; cultured mouse hybridoma cells)	intracellular antibody level ([1]; cultured mouse hybridoma cells)	value of mitochondrial membrane potential ([1]; cultured mouse hybridoma cells)	density of viable cells / growth ([1]; listed as 6)	density of viable cells / growth ([1]; listed as 24-epibrassinolide)	strength of growth inhibitory response relative to 28-homobrassinolide 2 [2]	in vitro antiviral activity (arena viruses)	in vitro antiviral activity (measles virus (MV))
CC(C)[C@@H](C)[C@@H](O)[C@H](O)[C@@H](C)[C@H]1CC[C@H]2[C@@H]3COC(=O)[C@H]4C[C@H](O)[C@H](O)C[C@]4(C)[C@H]3CC[C@]12C [Brassinosteroid 6, 24-Epibrassinolide]	decrease of S-phase cells	increase in the fraction of the cells in G0/G1 phase	decrease of intracellular antibody level	increase in the value of mitochondrial membrane potential	significant positive effect	significantly higher	–	–	–
CC[C@@H](C(C)C)[C@@H](O)[C@H](O)[C@@H](C)[C@H]1CC[C@H]2[C@@H]3CC(=O)[C@H]4C[C@H](O)[C@H](O)C[C@]4(C)[C@H]3CC[C@]12C [Brassinosteroid 9, 28-Homocastasterone]	–	–	–	–	–	–	about 3 times	in vitro antiviral activity	in vitro antiviral activity
